Measurements: patent US20040248905A1, “6-Substituted pyrazolo [3,4-d] pyrimidin-4-ones useful as cyclin dependent kinase inhibitors” (priority 2001, published 2004)

melting point: 200 to 202 °C
SMILES: CC(C)c1[nH]n(-c2c(Cl)cc(Cl)cc2Cl)c2nc(Cc3ccc(NC(=O)OCCCN(C)C)cc3)nc(=O)c1-2 [Example 1, 1-(2,4,6-trichlorophenyl)-3-isopropyl-6-(4-(3-(N,N-dimethylamino)prop-1-yloxycarbonylamino)benzyl)pyrazolo[3,4-d]pyrimidin-4-one]
